# Reference: US8026231B2, “Aminothiolester compounds, pharmaceutical and cosmetic compositions containing same and uses thereof” (CNRS, priority 2000, dated 2011)
# Assays:
# [1] = system: ALDH1; experiment: Effect on the activity of ALDH1 after preincubation; type: biochemical, baker's yeast; details: 400 μM
# Procedure: The procedure used is given below: 260 mU of ALDH from baker's yeast are preincubated at 37 or 0° C. in a mixture of 1 mM EDTA, 100 mM KCl, in 60 mM of sodium phosphate buffer pH 6 in a final volume of 200 μl.
# To each tube containing the 200 μl of mixture, the test compound is added to a concentration of 400 μM, with the exception of a control series which contains no test compound.
# The incubation carried out at 0° C. or at 37° C. is stopped by adding 100 μg of BSA (bovine serum albumin) and acetone at −20° C. to a final concentration of 80% in order to precipitate the proteins (ALDH and BSA). The tubes are left at −20° C. for 1 hour and then centrifuged at 10 000 rpm for 10 minutes and washed with 80% acetone. […]
# The reaction is started by adding 2 mM of propanal and the optical density (OD) is measured at 340 nm at T=0 and at T=5, 10, 20 and 30 minutes.
# The activity of the enzyme is measured by the variation in optical density Δ OD per minute (Quash G. et al., Enzymology and molecular biology of carbonyl metabolism, Weiner et al. eds., Kluwer Academic/Plenum Publishers, New York, 97-106).
# The percentage activity (A %) of the ALDH1 enzyme obtained at different preincubation times with the compound of Example 1 at 0° C. […] (represented by Δ) is measured as a function of the time t (expressed in minutes).
# [2] = system: bcl2 H16 cells; experiment: DNA fragmentation of bcl2 H16 cells, 6 h incubation; type: cell-based, mouse
# Procedure: (§1) The BAF3-bcl2 cells correspond to BAF3 cells (mouse lymphocyte cells) tranfected with the bcl2 gene. Among these cells, four lines known as H16, G18, B14 and G21 overexpress the bcl2 gene.
# (§2) The procedure which was used is as follows: • The BAF3-b0 or BAF3-bcl2 cells, cultured in the presence of IL3, were labelled by a method adapted from that disclosed in Wright, S. et al., J. of Cell. Biochem. 48, 344-355, (1992).
# (§3) 10^5 cells/ml were incubated with 4.62 KBq.ml^−1 [^3H]-thymidine for 40 hours at 37° C. After two washes with culture medium, 2.5×10^6 cells were cultured in the presence of the test compound.
# (§4) After incubating for 24 hours, these cells were recovered by centrifugation at 400×g for 5 minutes and washed 3 times with PBS buffer. The cells recovered in the pellet were lysed in 2 ml of 0.1% Triton X-100, 20 mM EDTA, 5 mM Tris pH 8 and centrifuged at 30 000×g at 4° C. for 30 minutes.
# (§5) The supernatants were recovered and the pellets dissolved in 0.3 ml of 0.5N NaOH.
# (§6) Aliquots of the culture medium (1 ml), of the supernatant (0.3 ml) and of the dissolved pellet (0.1 ml) were assayed in a scintillation counter.
# (§7) The percentage of DNA fragments is calculated in the following way:
# (§8) The percentage of fragmentation of the DNA is a direct measure of the apoptosis which the cells have undergone.
# The procedure for the test given in Table 4 below is identical to the previous procedure except that the incubation time is 6 hours instead of 24 hours: […]
# [3] = system: MRC5 cells; experiment: Growth of MRC5 cells (protein and DNA assay); type: cell-based, human; details: 50% inhibition of growth
# Procedure: The cells used correspond to various cell lines: human lung normal embryonic fibroblasts (MRC5), mouse melanoma cells (B16), mouse lymphocytic leukaemia cells (L1210) and L1210T cells obtained by infecting L1210 cells with a retroviral vector bearing human ALDH1 cDNA.
# The procedure used for the tests on the B16 and MRC5 cells is as follows: • The test compounds are added 4 hours after placing the cells in the wells. After 72 hours, the cells are removed at different times. The B16 and MRC5 cells are washed twice with PBS and recovered directly with 0.1M sodium chloride.
# The effect on the growth of the B16 and MRC5 cells is measured by protein assay according to the Lowry method (Lowry, O. H., Rosenbrough, N. J., Farr, A. L. and Randall, J. Biol. Chem. 193, 265-275, (1951)) and DNA assay by the Hoechst method (West, D. C., Sattar, A. and Kumar, S., Anal. Biochem. 147, 289-295, (1985)).
# The IC50 concentration is the concentration corresponding to a 50% inhibition of growth of the cells.
# [4] = system: BAF3-bcl2 G21 cells; experiment: Apoptosis induction (DNA fragmentation) in BAF3-bcl2 clone G21, 24 h; type: cell-based, mouse
# Procedure: as §1
# (§9) Whereas the BAF3-b0 cells undergo apoptosis (more than 80% of the cells) in the absence of interleukin 3 (IL3) in 16 hours [according to Collins, M. K. L., Marvel, J., Malde, P. & Lopez-Rivas, A., J. Exp. Med. 176, 1043-1051, (1992)], the BAF3-bcl2 cells show no sign of apoptosis in the absence of IL3. They are thus apoptosis-resistant.
# as §2, §3, §4, §5, §6, §7, §8
# [5] = system: BAF3-bcl2 H16 cells; experiment: Apoptosis induction (DNA fragmentation) in BAF3-bcl2 clone H16, 24 h; type: cell-based, mouse
# Procedure: as §1, §9, §2, §3, §4, §5, §6, §7, §8
# [6] = system: DU145 cells; experiment: Growth of DU145 cells (protein and DNA assay, 72 h); type: cell-based, human; details: 50% inhibition of cell growth
# Procedure: The cells used correspond to two cell lines: metastatic cells of human prostate cancer (DU145) and murine lymphoid cells transfected with the human bcl2 gene (BAF3 bcl2).
# The procedure used for the tests on DU145 is as follows: • 10^5 cells are incubated in the various wells of a microplate in 1 ml of culture medium.
# The compounds are added 4 hours after placing the cells in the wells.
# After 72 hours, the cells are removed at different times. The DU145 cells are washed twice with PBS and recovered directly with 0.1M sodium chloride.
# The effect on the growth of the DU145 cells is measured by protein assay according to the Lowry method (Lowry, O. H., Rosenbrough, N. J., Farr, A. L. and Randall, J. Biol. Chem. 193, 265-275, (1951)) and DNA assay by the Hoechst method (West, D. C., Sattar, A. and Kumar, S., Anal. Biochem. 147, 289-295, (1985)).
# The IC50 concentration is the concentration corresponding to a 50% inhibition of cell growth.
smiles,measurement,setting,value
"CSC(=O)C#CC(C)(C)N(C)C [Example 1, S-methyl 4-dimethyl-amino-4-methyl-2-pentynethioate]",Inhibition of the activity of the ALDH1 enzyme,[1]; pre-incubation at 0° C.,no effect of inhibition
same,Inhibition of the activity of the ALDH1 enzyme,[1]; pre-incubation at 37° C.,an effect of inhibition of the activity of the enzyme is observed
same,% fragmentation of the DNA of the bcl2 H16 cells,[2]; 50 μM,2.15%
same,% fragmentation of the DNA of the bcl2 H16 cells,[2]; 100 μM,0%
same,% fragmentation of the DNA of the bcl2 H16 cells,[2]; 200 μM,30.4%
same,% fragmentation of the DNA of the bcl2 H16 cells,[2]; 400 μM,83.8%
same,% fragmentation of the DNA of the bcl2 H16 cells,[2]; 600 μM,81.5%
same,IC50,[3],8.4 µM
same,DNA fragmentation (%),"[4]; G21, 1 μM",0%
same,DNA fragmentation (%),"[4]; G21, 2 μM",5.8%
same,DNA fragmentation (%),"[4]; G21, 4 μM",29.3%
same,DNA fragmentation (%),"[4]; G21, 8 μM",71.8%
same,DNA fragmentation (%),"[5]; H16, 1 μM",2.9%
same,DNA fragmentation (%),"[5]; H16, 2 μM",6.3%
same,DNA fragmentation (%),"[5]; H16, 4 μM",65.3%
same,DNA fragmentation (%),"[5]; H16, 8 μM",94.2%
same,IC50,[6],5.9 µM
